The values that follow are results of earlier work, collected in patent US20100105139A1, “Ligand Targeted Nanocapsules for the delivery of RNAi and other Agents” (priority 2008, published 2010).

In this series the test system is advanced stage melanoma. The following applies: melanoma patients.

For `COc1cccc2c1C(=O)c1c(O)c3c(c(O)c1C2=O)C[C@@](O)(C(=O)CO)C[C@@H]3O[C@H]1C[C@H](N)[C@H](O)[C@H](C)O1` [DOX, Doxorubicin], the response rates entry was “essentially ineffective”.
